Values after ≈ are worked out from the molar mass of the structure shown. Active and inactive are the calls of the source. The rule behind the calls is not given here.
Legend:
Chlamydia trachomatis [1] = experiment: Antimicrobial activity against Chlamydia trachomatis serovar L2 infected in human HeLa cells assessed as reduction in inclusion forming unit at 12.5 ug/ml measured after 8 hrs of post-infection by immunofluorescence based microscopic analysis; format: functional, organism-based; settings: dose 12.5 µg/ml
Chlamydia trachomatis [2] = experiment: Antimicrobial activity against Chlamydia trachomatis serovar L2 infected in human HEp-2 cells assessed as fold change in inclusion forming unit at 1.56 to 12.5 ug/ml measured at 8 to 48 hrs of post-infection by immunofluorescence based microscopic analysis; format: functional; settings: dose 1.56-12.5 µg/ml; time 8-48 hrs
Chlamydia trachomatis [3] = experiment: Antimicrobial activity against Chlamydia trachomatis serovar L2 infected in human HeLa cells assessed as change in inclusion morphology at 1.56 to 12.5 ug/ml measured after 24 hrs of post-infection by immunofluorescence based microscopic analysis; format: functional, organism-based; settings: dose 1.56-12.5 µg/ml
Chlamydia trachomatis [4] = experiment: Antimicrobial activity against Chlamydia trachomatis serovar L2 infected in human HeLa cells assessed as inclusion forming unit at 12.5 ug/ml measured at 24 to 48 hrs of post-infection by immunofluorescence based microscopic analysis; format: functional; settings: dose 12.5 µg/ml; time 24-48 hrs
[5] = Solubility of compound in PBS incubated overnight by shake-flask based HPLC analysis; format: physicochemical
[6] = target: T1, Ubiquitin carboxyl-terminal hydrolase isozyme L3 (Homo sapiens) (UniProt P15374); experiment: Inhibition of GST-tagged human UCHL3 using Ub-Rh110Gly as fluorogenic substrate at 40 uM preincubated for 1 hr followed by substrate addition by plate reader analysis
T1 sequence (whole entry): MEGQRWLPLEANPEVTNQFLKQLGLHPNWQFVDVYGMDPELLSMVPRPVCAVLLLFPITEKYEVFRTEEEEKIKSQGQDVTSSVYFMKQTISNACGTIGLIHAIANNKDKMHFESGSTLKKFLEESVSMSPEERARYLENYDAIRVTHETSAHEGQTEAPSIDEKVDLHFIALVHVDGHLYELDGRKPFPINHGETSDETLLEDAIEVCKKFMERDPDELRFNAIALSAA

Chlamydia trachomatis [7] = experiment: Antimicrobial activity against Chlamydia trachomatis serovar L2 infected in human HeLa cells assessed as reduction in microbial progeny at 12.5 ug/ml measured after 48 hrs of post-infection by immunofluorescence analysis; format: functional; design: scale not given: the % may be the effect or the level left; settings: dose 12.5 µg/ml
[8] = target: T2, Ubiquitin carboxyl-terminal hydrolase isozyme L1 (Homo sapiens, UniProt P09936); experiment: Inhibition of 6His-tagged human UCHL1 using Ub-Rh110Gly as fluorogenic substrate preincubated for 1 hr followed by substrate addition by plate reader analysis
T2 sequence (P09936 whole entry): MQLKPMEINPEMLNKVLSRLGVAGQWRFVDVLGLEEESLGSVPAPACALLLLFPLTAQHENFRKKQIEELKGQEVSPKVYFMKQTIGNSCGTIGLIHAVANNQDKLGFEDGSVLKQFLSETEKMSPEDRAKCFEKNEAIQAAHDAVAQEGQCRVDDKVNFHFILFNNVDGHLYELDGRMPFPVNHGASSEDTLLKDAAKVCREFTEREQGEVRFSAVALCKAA

Chlamydia trachomatis [9] = experiment: (§1) Inhibition of C-terminal 6His-tagged Chlamydia trachomatis DUB1 (130 to 401 residues) expressed in Escherichia coli Rosetta 2 (DE3) cells using Ub-Rh110Gly as fluorogenic substrate at 40 uM preincubated for 1 hr followed by substrate addition by plate reader analysis
[10] = as §1, with “Binding affinity to” for “Inhibition of”, “assessed as inhibition constant” for “at 40 uM”, “60 mins” for “1 hr”, “addition measured after 360 mins” for “addition”
Chlamydia trachomatis [11] = experiment: Antimicrobial activity against Chlamydia trachomatis serovar L2 infected in human HeLa cells assessed as reduction in microbial progeny at 6.25 ug/ml measured after 24 hrs of post-infection by immunofluorescence analysis; format: functional; design: scale not given: the % may be the effect or the level left; settings: dose 6.25 µg/ml
[12] = target: T3, OTU domain-containing protein 3 (Homo sapiens) (UniProt Q5T2D3); experiment: Inhibition of GST-tagged human OTUD3 using Ub-Rh110Gly as fluorogenic substrate at 40 uM preincubated for 1 hr followed by substrate addition by plate reader analysis
T3 sequence (whole entry): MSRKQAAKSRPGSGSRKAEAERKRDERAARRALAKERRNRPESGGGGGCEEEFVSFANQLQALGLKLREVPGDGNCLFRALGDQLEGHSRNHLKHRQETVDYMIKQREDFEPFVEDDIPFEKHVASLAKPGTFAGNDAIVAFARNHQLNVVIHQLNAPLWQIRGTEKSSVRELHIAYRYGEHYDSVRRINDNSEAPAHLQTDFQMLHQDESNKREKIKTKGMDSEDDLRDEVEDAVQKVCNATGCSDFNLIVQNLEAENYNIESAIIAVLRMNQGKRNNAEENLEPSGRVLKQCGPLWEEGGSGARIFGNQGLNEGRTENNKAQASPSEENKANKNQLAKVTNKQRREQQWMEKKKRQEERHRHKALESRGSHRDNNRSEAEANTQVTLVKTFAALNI

Chlamydia trachomatis [13] = experiment: Antimicrobial activity against Chlamydia trachomatis serovar L2 infected in human HeLa cells assessed as reduction in inclusion circumference at 12.5 ug/ml measured after 24 hrs of post-infection by microscopic analysis (reference value: 31.72 micrometer); format: functional; settings: dose 12.5 µg/ml
Chlamydia trachomatis [14] = experiment: Antimicrobial activity against Chlamydia trachomatis serovar L2 infected in human HeLa cells assessed as reduction in microbial progeny at 1.56 ug/ml measured after 24 hrs of post-infection by immunofluorescence analysis; format: functional; settings: dose 1.56 µg/ml
Chlamydia trachomatis [15] = experiment: Antimicrobial activity against Chlamydia trachomatis serovar L2 infected in human HeLa cells assessed as inclusion forming unit at 1.56 to 6.25 ug/ml measured after 24 hrs of post-infection by immunofluorescence based microscopic analysis; format: functional; settings: dose 1.56-6.25 µg/ml
Chlamydia trachomatis [16] = experiment: Antimicrobial activity against Chlamydia trachomatis serovar L2 infected in human HeLa cells assessed as reduction in microbial progeny at 12.5 ug/ml measured after 24 hrs of post-infection by immunofluorescence analysis; format: functional; design: scale not given: the % may be the effect or the level left; settings: dose 12.5 µg/ml
[17] = target: Ubiquitin carboxyl-terminal hydrolase isozyme L1 (Homo sapiens) (UniProt P09936); experiment: Inhibition of 6His-tagged human UCHL1 using Ub-Rh110Gly as fluorogenic substrate at 40 uM preincubated for 1 hr followed by substrate addition by plate reader analysis
Chlamydia trachomatis [18] = experiment: Antimicrobial activity against Chlamydia trachomatis serovar L2 infected in human HeLa cells assessed as reduction in inclusion area at 3.13 ug/ml measured after 24 hrs of post-infection by microscopic analysis; format: functional; settings: dose 3.13 µg/ml
Chlamydia trachomatis [19] = experiment: Antimicrobial activity against Chlamydia trachomatis serovar L2 infected in human HeLa cells assessed as reduction in inclusion area at 12.5 ug/ml measured after 24 hrs of post-infection by microscopic analysis; format: functional; settings: dose 12.5 µg/ml
Chlamydia trachomatis [20] = experiment: Antimicrobial activity against Chlamydia trachomatis serovar L2 infected in human HeLa cells assessed as reduction in inclusion area at 1.56 ug/ml measured after 24 hrs of post-infection by microscopic analysis; format: functional; settings: dose 1.56 µg/ml
Chlamydia trachomatis [21] = experiment: Antimicrobial activity against Chlamydia trachomatis serovar L2 infected in human HeLa cells assessed as reduction in microbial progeny at 3.13 ug/ml measured after 48 hrs of post-infection by immunofluorescence analysis; format: functional; design: scale not given: the % may be the effect or the level left; settings: dose 3.13 µg/ml

With N#Cc1ncc(C(=O)NCc2ccc(C(=O)NC34CC5CC(CC(C5)C3)C4)cc2)cn1 the Activity (Chlamydia trachomatis [1]) was “Active”, the “fold change (FC)” value (Chlamydia trachomatis [2]) was 2 and the Activity (Chlamydia trachomatis [3]) was “inactive”. The Activity (Chlamydia trachomatis [4]) was 3.7 10^6IFU/ml, the solubility thermodynamic [5] was 308 µM (≈ 128 µg/mL) and the inhibition [6] was “inactive”. The Activity (Chlamydia trachomatis [7]) was 98.5%, the IC50 [8] was 4.2 µM and the inhibition (Chlamydia trachomatis [9]) was “Active”. For the same compound, the Ki [10] was 120 µM, the Activity (Chlamydia trachomatis [11]) was 66.5% and the inhibition [12] was “inactive”. The Activity (Chlamydia trachomatis [13]) was 14.75 um, the Activity (Chlamydia trachomatis [14]) was “inactive” and the Activity (Chlamydia trachomatis [15]) was 1.075 10^7IFU/ml. For the same compound, the Activity (Chlamydia trachomatis [16]) was 80%, the inhibition [17] was “Active” and the Activity (Chlamydia trachomatis [18]) was 49.99 um2. For the same compound, the Activity (Chlamydia trachomatis [19]) was 15.38 um2, the Activity (Chlamydia trachomatis [20]) was 70.68 um2 and the Activity (Chlamydia trachomatis [21]) was 11%.
